According to paper PMC7156458, “Synthetic biology based construction of biological activity-related library of fungal decalin-containing diterpenoid pyrones” (Nature Communications, 2020):

Biological target: Aβ42 (Homo sapiens, UniProt P05067)
Assay: Th-T (thioflavin-T) assay of Aβ42 aggregation
Type: biochemical
Details: for Th-T assay plate reading, mean of three wells (Supplementary Fig. 47): source data, Ab alone and No Ab as controls

Sequence of Aβ42 (P05067 672-713): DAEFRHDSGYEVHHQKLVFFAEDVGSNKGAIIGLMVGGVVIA

Th-T fluorescence, mean of three wells (Aβ42 aggregation time course, reading M117): 2.674 | Th-T fluorescence, mean of three wells (Aβ42 aggregation time course, reading M118): 2.686 | Th-T fluorescence, mean of three wells (Aβ42 aggregation time course, reading M119): 2.671 | Th-T fluorescence, mean of three wells (Aβ42 aggregation time course, reading M120): 2.6965 | Th-T fluorescence, mean of three wells (Aβ42 aggregation time course, reading M121): 2.686 | Th-T fluorescence, mean of three wells (Aβ42 aggregation time course, reading M122): 2.656 | Th-T fluorescence, mean of three wells (Aβ42 aggregation time course, reading M123): 2.683 | Th-T fluorescence, mean of three wells (Aβ42 aggregation time course, reading M124): 2.652 | Th-T fluorescence, mean of three wells (Aβ42 aggregation time course, reading M125): 2.669 | Th-T fluorescence, mean of three wells (Aβ42 aggregation time course, reading M126): 2.668 | Th-T fluorescence, mean of three wells (Aβ42 aggregation time course, reading M127): 2.67 | Th-T fluorescence, mean of three wells (Aβ42 aggregation time course, reading M128): 2.643 | Th-T fluorescence, mean of three wells (Aβ42 aggregation time course, reading M129): 2.642 | Th-T fluorescence, mean of three wells (Aβ42 aggregation time course, reading M130): 2.649 | Th-T fluorescence, mean of three wells (Aβ42 aggregation time course, reading M131): 2.67 | Th-T fluorescence, mean of three wells (Aβ42 aggregation time course, reading M132): 2.65 | Th-T fluorescence, mean of three wells (Aβ42 aggregation time course, reading M133): 2.648 | Th-T fluorescence, mean of three wells (Aβ42 aggregation time course, reading M134): 2.64 | Th-T fluorescence, mean of three wells (Aβ42 aggregation time course, reading M135): 2.652 | Th-T fluorescence, mean of three wells (Aβ42 aggregation time course, reading M136): 2.674 | Th-T fluorescence, mean of three wells (Supplementary Fig. 47, reading M137): 2.698 | Th-T fluorescence, mean of three wells (Supplementary Fig. 47, reading M138): 2.649 | Th-T fluorescence, mean of three wells (Supplementary Fig. 47, reading M139): 2.636 | Th-T fluorescence, mean of three wells (Supplementary Fig. 47, reading M140): 2.665 | Th-T fluorescence, mean of three wells (Supplementary Fig. 47, reading M141): 2.631 | Th-T fluorescence, mean of three wells (Supplementary Fig. 47, reading M142): 2.63 | Th-T fluorescence, mean of three wells (Supplementary Fig. 47, reading M143): 2.626 | Th-T fluorescence, mean of three wells (Supplementary Fig. 47, reading M144): 2.617 | Th-T fluorescence, mean of three wells (Supplementary Fig. 47, reading M145): 2.644 | Th-T fluorescence, mean of three wells (Supplementary Fig. 47 source data, measurement M37 of time course): 2.596 | Th-T fluorescence, mean of three wells (Supplementary Fig. 47 source data, measurement M38 of time course): 2.604 | Th-T fluorescence, mean of three wells (Supplementary Fig. 47 source data, measurement M39 of time course): 2.6132 | Th-T fluorescence, mean of three wells (Supplementary Fig. 47 source data, measurement M40 of time course): 2.619 | Th-T fluorescence, mean of three wells (Supplementary Fig. 47 source data, measurement M41 of time course): 2.62 | Th-T fluorescence, mean of three wells (Supplementary Fig. 47 source data, measurement M42 of time course): 2.62 | Th-T fluorescence, mean of three wells (Supplementary Fig. 47 source data, measurement M43 of time course): 2.6737 | Th-T fluorescence, mean of three wells (Supplementary Fig. 47 source data, measurement M44 of time course): 2.6589 | Th-T fluorescence, mean of three wells (Supplementary Fig. 47 source data, measurement M45 of time course): 2.678 | Th-T fluorescence, mean of three wells (Supplementary Fig. 47 source data, measurement M46 of time course): 2.668 | Th-T fluorescence, mean of three wells (Supplementary Fig. 47 source data, measurement M47 of time course): 2.664 | Th-T fluorescence, mean of three wells (Supplementary Fig. 47 source data, measurement M48 of time course): 2.673 | Th-T fluorescence, mean of three wells (Supplementary Fig. 47 source data, measurement M49 of time course): 2.687 | Th-T fluorescence, mean of three wells (Supplementary Fig. 47 source data, measurement M50 of time course): 2.7097 | Th-T fluorescence, mean of three wells (Supplementary Fig. 47 source data, measurement M51 of time course): 2.667 | Th-T fluorescence, mean of three wells (Supplementary Fig. 47 source data, measurement M52 of time course): 2.696 | Th-T fluorescence, mean of three wells (Supplementary Fig. 47 source data, measurement M53 of time course): 2.692 | Th-T fluorescence, mean of three wells (Supplementary Fig. 47 source data, measurement M54 of time course): 2.717 | Th-T fluorescence, mean of three wells (Supplementary Fig. 47 source data, measurement M55 of time course): 2.693 | Th-T fluorescence, mean of three wells (Supplementary Fig. 47 source data, measurement M56 of time course): 2.698 | Th-T assay plate reading, mean of three wells (Supplementary Fig. 47) (measurement M1): 0.28 | Th-T assay plate reading, mean of three wells (Supplementary Fig. 47) (measurement M2): 0.2885 | Th-T assay plate reading, mean of three wells (Supplementary Fig. 47) (measurement M3): 0.3145 | Th-T assay plate reading, mean of three wells (Supplementary Fig. 47) (measurement M4): 0.3563 | Th-T assay plate reading, mean of three wells (Supplementary Fig. 47) (measurement M5): 0.4309 | Th-T assay plate reading, mean of three wells (Supplementary Fig. 47) (measurement M6): 0.5173 | Th-T assay plate reading, mean of three wells (Supplementary Fig. 47) (measurement M7): 0.5869 | Th-T assay plate reading, mean of three wells (Supplementary Fig. 47) (measurement M8): 0.6432 | Th-T assay plate reading, mean of three wells (Supplementary Fig. 47) (measurement M9): 0.6839 | Th-T assay plate reading, mean of three wells (Supplementary Fig. 47) (measurement M10): 0.7213 | Th-T assay plate reading, mean of three wells (Supplementary Fig. 47) (measurement M11): 0.7671 | Th-T assay plate reading, mean of three wells (Supplementary Fig. 47) (measurement M12): 0.8255 | Th-T assay plate reading, mean of three wells (Supplementary Fig. 47) (measurement M13): 0.9138 | Th-T assay plate reading, mean of three wells (Supplementary Fig. 47) (measurement M14): 1.049 | Th-T assay plate reading, mean of three wells (Supplementary Fig. 47) (measurement M15): 1.273 | Th-T assay plate reading, mean of three wells (Supplementary Fig. 47) (measurement M16): 1.57 | Th-T fluorescence, mean of three wells (reading M17, Supplementary Fig. 47 source data): 1.838 | Th-T fluorescence, mean of three wells (reading M18, Supplementary Fig. 47 source data): 2.054 | Th-T fluorescence, mean of three wells (reading M19, Supplementary Fig. 47 source data): 2.206 | Th-T fluorescence, mean of three wells (reading M20, Supplementary Fig. 47 source data): 2.312 | Th-T fluorescence, mean of three wells (reading M21, Supplementary Fig. 47 source data): 2.3414 | Th-T fluorescence, mean of three wells (reading M22, Supplementary Fig. 47 source data): 2.381 | Th-T fluorescence, mean of three wells (reading M23, Supplementary Fig. 47 source data): 2.384 | Th-T fluorescence, mean of three wells (reading M24, Supplementary Fig. 47 source data): 2.421 | Th-T fluorescence, mean of three wells (reading M25, Supplementary Fig. 47 source data): 2.421 | Th-T fluorescence, mean of three wells (reading M26, Supplementary Fig. 47 source data): 2.4278 | Th-T fluorescence, mean of three wells (reading M27, Supplementary Fig. 47 source data): 2.452 | Th-T fluorescence, mean of three wells (reading M28, Supplementary Fig. 47 source data): 2.461 | Th-T fluorescence, mean of three wells (reading M29, Supplementary Fig. 47 source data): 2.478 | Th-T fluorescence, mean of three wells (reading M30, Supplementary Fig. 47 source data): 2.514 | Th-T fluorescence, mean of three wells (reading M31, Supplementary Fig. 47 source data): 2.5151 | Th-T fluorescence, mean of three wells (reading M32, Supplementary Fig. 47 source data): 2.555 | Th-T fluorescence, mean of three wells (reading M33, Supplementary Fig. 47 source data): 2.5475 | Th-T fluorescence, mean of three wells (reading M34, Supplementary Fig. 47 source data): 2.566 | Th-T fluorescence, mean of three wells (reading M35, Supplementary Fig. 47 source data): 2.566 | Th-T fluorescence, mean of three wells (reading M36, Supplementary Fig. 47 source data): 2.598 | Th-T fluorescence, mean of three wells (time course, reading M57): 2.692 | Th-T fluorescence, mean of three wells (time course, reading M58): 2.694 | Th-T fluorescence, mean of three wells (time course, reading M59): 2.7314 | Th-T fluorescence, mean of three wells (time course, reading M60): 2.723 | Th-T fluorescence, mean of three wells (time course, reading M61): 2.703 | Th-T fluorescence, mean of three wells (time course, reading M62): 2.708 | Th-T fluorescence, mean of three wells (time course, reading M63): 2.7 | Th-T fluorescence, mean of three wells (time course, reading M64): 2.715 | Th-T fluorescence, mean of three wells (time course, reading M65): 2.696 | Th-T fluorescence, mean of three wells (time course, reading M66): 2.7072 | Th-T fluorescence, mean of three wells (time course, reading M67): 2.703 | Th-T fluorescence, mean of three wells (time-course reading M97, Supplementary Fig. 47 source data): 2.693 | Th-T fluorescence, mean of three wells (time-course reading M98, Supplementary Fig. 47 source data): 2.706 | Th-T fluorescence, mean of three wells (time-course reading M99, Supplementary Fig. 47 source data): 2.707 | Th-T fluorescence, mean of three wells (time-course reading M100, Supplementary Fig. 47 source data): 2.682 | Th-T fluorescence, mean of three wells (time-course reading M101, Supplementary Fig. 47 source data): 2.67 | Th-T fluorescence, mean of three wells (time-course reading M102, Supplementary Fig. 47 source data): 2.671 | Th-T fluorescence, mean of three wells (time-course reading M103, Supplementary Fig. 47 source data): 2.705 | Th-T fluorescence, mean of three wells (time-course reading M104, Supplementary Fig. 47 source data): 2.674 | Th-T fluorescence, mean of three wells (time-course reading M105, Supplementary Fig. 47 source data): 2.704 | Th-T fluorescence, mean of three wells (time-course reading M106, Supplementary Fig. 47 source data): 2.676 | Th-T fluorescence, mean of three wells (time-course reading M107, Supplementary Fig. 47 source data): 2.6621 | Th-T fluorescence, mean of three wells (time-course reading M108, Supplementary Fig. 47 source data): 2.675 | Th-T fluorescence, mean of three wells (time-course reading M109, Supplementary Fig. 47 source data): 2.6837 | Th-T fluorescence, mean of three wells (time-course reading M110, Supplementary Fig. 47 source data): 2.682 | Th-T fluorescence, mean of three wells (time-course reading M111, Supplementary Fig. 47 source data): 2.679 | Th-T fluorescence, mean of three wells (time-course reading M112, Supplementary Fig. 47 source data): 2.691 | Th-T fluorescence, mean of three wells (time-course reading M113, Supplementary Fig. 47 source data): 2.675 | Th-T fluorescence, mean of three wells (time-course reading M114, Supplementary Fig. 47 source data): 2.674 | Th-T fluorescence, mean of three wells (time-course reading M115, Supplementary Fig. 47 source data): 2.688 | Th-T fluorescence, mean of three wells (time-course reading M116, Supplementary Fig. 47 source data): 2.67
Compound: C=C1CC[C@H]2[C@]3(C)C[C@@H](C=C(C)C)O[C@H]3CC[C@]2(C)[C@@H]1Cc1c(O)c(C)c(C)oc1=O [Compound 5, subglutinol A]
